Results on 27 compounds are retold here after US11891365B2, “3-alkyl-4-amido-bicyclic [4,5,0] hydroxamic acids as HDAC inhibitors” (Valo Health, Inc., priority 2015, dated 2024).

The target in the test is T1, Full length human recombinant HDAC6 protein (Homo sapiens, UniProt Q9UBN7).
T1 sequence (Q9UBN7 1-1215): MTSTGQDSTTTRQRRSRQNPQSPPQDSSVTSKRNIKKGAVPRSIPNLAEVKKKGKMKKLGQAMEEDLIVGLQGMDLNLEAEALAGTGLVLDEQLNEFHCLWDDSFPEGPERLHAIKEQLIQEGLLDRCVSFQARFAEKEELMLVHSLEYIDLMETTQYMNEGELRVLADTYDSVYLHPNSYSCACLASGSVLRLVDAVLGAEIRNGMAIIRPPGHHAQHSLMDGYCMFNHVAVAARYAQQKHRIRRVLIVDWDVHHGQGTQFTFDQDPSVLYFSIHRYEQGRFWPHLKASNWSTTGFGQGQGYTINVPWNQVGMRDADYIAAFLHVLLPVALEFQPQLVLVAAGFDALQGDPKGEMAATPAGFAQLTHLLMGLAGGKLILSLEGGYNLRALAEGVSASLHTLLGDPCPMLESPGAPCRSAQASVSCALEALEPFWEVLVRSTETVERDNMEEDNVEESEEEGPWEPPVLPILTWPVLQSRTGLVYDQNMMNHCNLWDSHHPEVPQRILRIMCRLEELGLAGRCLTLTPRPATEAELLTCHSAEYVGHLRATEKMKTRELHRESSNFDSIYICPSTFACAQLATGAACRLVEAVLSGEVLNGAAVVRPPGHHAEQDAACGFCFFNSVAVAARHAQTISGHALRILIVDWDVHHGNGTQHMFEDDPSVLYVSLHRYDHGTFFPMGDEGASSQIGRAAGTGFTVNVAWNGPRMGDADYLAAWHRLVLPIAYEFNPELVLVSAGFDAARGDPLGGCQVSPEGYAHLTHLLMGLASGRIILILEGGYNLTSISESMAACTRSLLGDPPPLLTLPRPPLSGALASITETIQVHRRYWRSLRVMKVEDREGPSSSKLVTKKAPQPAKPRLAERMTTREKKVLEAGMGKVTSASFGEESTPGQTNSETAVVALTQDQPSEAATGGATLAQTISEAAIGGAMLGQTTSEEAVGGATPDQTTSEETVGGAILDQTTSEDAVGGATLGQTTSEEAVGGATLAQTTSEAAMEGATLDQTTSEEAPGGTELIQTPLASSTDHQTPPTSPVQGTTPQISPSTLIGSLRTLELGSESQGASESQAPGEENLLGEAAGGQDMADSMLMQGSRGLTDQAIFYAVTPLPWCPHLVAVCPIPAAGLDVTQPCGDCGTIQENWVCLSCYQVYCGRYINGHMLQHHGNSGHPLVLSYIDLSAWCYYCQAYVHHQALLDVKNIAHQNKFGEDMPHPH
The experiment in a line: In vitro histone deacetylase assay: enzymatic HDAC6 electrophoretic mobility shift assay. The class given is biochemical. The settings on record: 1 nM enzyme, 2 μM peptide substrate RHKK(Ac)-NH2, 25° C., 12 concentrations; read-out: Inhibitory Concentration (IC50) Values against HDAC6, Activity Range. The procedure:
The enzymatic HDAC6 assay was performed using electrophoretic mobility shift assay. […] The enzymatic reactions were assembled in 384 well plates in a total volume of 25 μL in a reaction buffer composing: 100 mM HEPES, pH7.5, 25 mM KCl, 0.1% bovine serum albumin, 0.01% Triton X-100, 1% DMSO (from compounds) 2 μM of the fluorescently labeled peptide substrate and enzyme. The enzyme was added at a final concentration of 1 nM. The peptide substrate RHKK(Ac)—NH2 was used. The compounds were tested at 12 concentrations spaced by 3× dilution intervals. Negative control samples ([…] in the absence of inhibitor) and positive control samples (100%-inhibition) were assembled in replicates of four in each assay plate. The reactions were incubated at 25° C. and quenched by the addition of 45 μL of termination buffer (100 mM HEPES, pH 7.5, 0.01% Triton X-100, 0.05% SDS).
The terminated assay plates were analyzed on LabChip® 3000 microfluidic electrophoresis instrument (Perkin Elmer/Caliper Life Sciences). The fluorescence intensity of the electrophoretically separated de-acetylated product and substrate peptide was measured. Activity in each sample was determined as the product to sum ratio (PSR): P/(S+P), where P is the peak height of the product peptide and S is the peak height of the substrate peptide. Percent inhibition (Pinh) is determined using the following equation:
Pinh=(PSR0%−PSRinh)/(PSR0%−PSR100%)*100, where PSRinh is the product sum ratio in the presence of inhibitor, PSR0% is the average product sum ration in the absence of inhibitor and PSR100% is the average product sum ratio in 100%-inhibition control samples. The IC50 values of inhibitors were determined by fitting the %-inhibition curves with 4 parameter dose-response model using XLfit 4 software.
In general terms: Mobility shift assays separate free from complexed probe on a gel.

Some results are limits rather than exact numbers.

As to `O=C(NO)c1ccc2c(c1)OCC(C1CCOCC1)N(C(=O)C1CCOCC1)C2` (stereo not drawn) [N-hydroxy-4-(tetrahydro-2H-pyran-4-carbonyl)-3-(tetrahydro-2H-pyran-4-yl)-2,3,4,5-tetrahydrobenzo[f][1,4]oxazepine-8-carboxamide], the IC50 is more than 500 nM.

Consider `COc1ccc(C2(C(=O)N3CCOc4cc(C(=O)NO)ccc4C3)CC2)cc1` [N-hydroxy-4-(1-(4-methoxyphenyl)cyclopropane-1-carbonyl)-2,3,4,5-tetrahydrobenzo[f][1,4]oxazepine-8-carboxamide], for which the IC50 was not above 100 nM.

Regarding `CC(C)[C@@H]1c2ccc(C(=O)NO)cc2OCCN1C(=O)C1COC1` [(R)-N-hydroxy-5-isopropyl-4-(oxetane-3-carbonyl)-2,3,4,5-tetrahydrobenzo[f][1,4]oxazepine-8-carboxamide], the IC50 was more than 500 nM.

In the case of `O=C(NO)c1ccc2c(c1)OCCN(C(=O)C1(Oc3ccccc3)CC1)C2` [N-hydroxy-4-(1-phenoxycyclopropane-1-carbonyl)-2,3,4,5-tetrahydrobenzo[f][1,4]oxazepine-8-carboxamide], the IC50 is 100 to 500 nM.

Take `CC(CC(=O)N1CCOc2cc(C(=O)NO)ccc2C1)c1ccccc1` (stereo not drawn) [N-hydroxy-4-(3-phenylbutanoyl)-2,3,4,5-tetrahydrobenzo[f][1,4]oxazepine-8-carboxamide]: the IC50 was in the range of 100 to 500 nM.

`CC(C(=O)N1CCOc2cc(C(=O)NO)ccc2C1)c1ccc(F)cc1` (stereo not drawn) [4-(2-(4-fluorophenyl)propanoyl)-N-hydroxy-2,3,4,5-tetrahydrobenzo[f][1,4]oxazepine-8-carboxamide]: the IC50 is 100 to 500 nM.

On to `CC(=O)N1Cc2ccc(C(=O)NO)cc2OC[C@H]1C(C)C` [(R)-4-acetyl-N-hydroxy-3-isopropyl-2,3,4,5-tetrahydrobenzo[f][1,4]oxazepine-8-carboxamide], for which the IC50 was 100 to 500 nM.

Turning to `CS(=O)(=O)N1CCC(CC(=O)N2CCOc3cc(C(=O)NO)ccc3C2)CC1` [N-hydroxy-4-(2-(1-(methylsulfonyl)piperidin-4-yl)acetyl)-2,3,4,5-tetrahydrobenzo[f][1,4]oxazepine-8-carboxamide], the IC50 is more than 500 nM.

Turning to `COC1(C(=O)N2Cc3ccc(C(=O)NO)cc3OC[C@@H]2C)CCC1` [(S)-N-hydroxy-4-(1-methoxycyclobutane-1-carbonyl)-3-methyl-2,3,4,5-tetrahydrobenzo[f][1,4]oxazepine-8-carboxamide], the IC50 was not above 100 nM.

For `CC(C)(C(=O)N1CCOc2cc(C(=O)NO)ccc2C1)c1ccc2ccccc2c1` [N-hydroxy-4-(2-methyl-2-(naphthalen-2-yl)propanoyl)-2,3,4,5-tetrahydrobenzo[f][1,4]oxazepine-8-carboxamide], the IC50 lay in the range of 100 to 500 nM.

For `O=C(NO)c1ccc2c(c1)OCCN(C(=O)C1(c3ccc(F)cc3)CC1)C2` [4-(1-(4-fluorophenyl)cyclopropane-1-carbonyl)-N-hydroxy-2,3,4,5-tetrahydrobenzo[f][1,4]oxazepine-8-carboxamide], the IC50 was not above 100 nM.

For the compound `CC(=O)N1CCC(C(=O)N2Cc3ccc(C(=O)NO)cc3OC[C@@H]2C)CC1` [(S)-4-(1-acetylpiperidine-4-carbonyl)-N-hydroxy-3-methyl-2,3,4,5-tetrahydrobenzo[f][1,4]oxazepine-8-carboxamide], the IC50 was not above 100 nM.

Turning to `O=C(NO)c1ccc2c(c1)OCCN(C(=O)C1(c3ccccn3)CC1)C2` [N-hydroxy-4-(1-(pyridin-2-yl)cyclopropane-1-carbonyl)-2,3,4,5-tetrahydrobenzo[f][1,4]oxazepine-8-carboxamide], the IC50 is not above 100 nM.

Consider `C[C@H]1COc2cc(C(=O)NO)ccc2CN1C(=O)C1CCC(OC(F)(F)F)CC1` (single isomer, unassigned), for which the IC50 is not above 100 nM.

On to `CC(C)(C)OC(=O)N1CC2(CC(C(=O)N3CCOc4cc(C(=O)NO)ccc4C3)CO2)C1` (stereo not drawn) [tert-butyl 7-(8-(hydroxycarbamoyl)-2,3,4,5-tetrahydrobenzo[f][1,4]oxazepine-4-carbonyl)-5-oxa-2-azaspiro[3.4]octane-2-carboxylate], for which the IC50 is 100 to 500 nM.

Take `O=C(NO)c1ccc2c(c1)OCCN(C(=O)[C@@H]1CCOC1)C2` [(R)-N-hydroxy-4-(tetrahydrofuran-3-carbonyl)-2,3,4,5-tetrahydrobenzo[f][1,4]oxazepine-8-carboxamide]: the IC50 is not above 100 nM.

As for `COc1ccc(C(=O)N2CCOc3cc(C(=O)NO)ccc3C2)cc1` [N-hydroxy-4-(4-methoxybenzoyl)-2,3,4,5-tetrahydrobenzo[f][1,4]oxazepine-8-carboxamide], the IC50 is not above 100 nM.

In the case of `CO[C@H]1C[C@H](C(=O)N2Cc3ccc(C(=O)NO)cc3OC[C@@H]2C)C1`, the IC50 was not above 100 nM.

With `COc1cccc(C2(C(=O)N3CCOc4cc(C(=O)NO)ccc4C3)CC2)c1` [N-hydroxy-4-(1-(3-methoxyphenyl)cyclopropane-1-carbonyl)-2,3,4,5-tetrahydrobenzo[f][1,4]oxazepine-8-carboxamide], the IC50 is not above 100 nM.

Regarding `CC(=O)N1CCOc2cc(C(=O)NO)ccc2C1` [4-acetyl-N-hydroxy-2,3,4,5-tetrahydrobenzo[f][1,4]oxazepine-8-carboxamide], the IC50 is not above 100 nM.

Take `C[C@H]1COc2cc(C(=O)NO)ccc2CN1C(=O)[C@@H]1CCCCO1` [(S)-N-hydroxy-3-methyl-4-((S)-tetrahydro-2H-pyran-2-carbonyl)-2,3,4,5-tetrahydrobenzo[f][1,4]oxazepine-8-carboxamide]: the IC50 was not above 100 nM.

For `COc1ccc2[nH]cc(CC(=O)N3CCOc4cc(C(=O)NO)ccc4C3)c2c1` [N-hydroxy-4-(2-(5-methoxy-1H-indol-3-yl)acetyl)-2,3,4,5-tetrahydrobenzo[f][1,4]oxazepine-8-carboxamide], the IC50 was more than 500 nM.

With `CC(C)[C@@H]1COc2cc(C(=O)NO)ccc2CN1C(=O)C1(C)CCC1` [(R)-N-hydroxy-3-isopropyl-4-(1-methylcyclobutane-1-carbonyl)-2,3,4,5-tetrahydrobenzo[f][1,4]oxazepine-8-carboxamide], the IC50 is more than 500 nM.

With `CC(C)C1OCCC1C(=O)N1Cc2ccc(C(=O)NO)cc2OC[C@@H]1C` (stereo partly drawn) [(3S)-N-hydroxy-4-(2-isopropyltetrahydrofuran-3-carbonyl)-3-methyl-2,3,4,5-tetrahydrobenzo[f][1,4]oxazepine-8-carboxamide], the IC50 is not above 100 nM.

For `C[C@H]1c2ccc(C(=O)NO)cc2OCCN1C(=O)[C@@]1(C)CCCOC1` [(S)-N-hydroxy-5-methyl-4-((S)-3-methyltetrahydro-2H-pyran-3-carbonyl)-2,3,4,5-tetrahydrobenzo[f][1,4]oxazepine-8-carboxamide], the IC50 was not above 100 nM.

For the compound `O=C(NO)c1ccc2c(c1)OCCN(C(=O)C1(c3cnccn3)CC1)C2` [N-hydroxy-4-(1-(pyrazin-2-yl)cyclopropane-1-carbonyl)-2,3,4,5-tetrahydrobenzo[f][1,4]oxazepine-8-carboxamide], the IC50 is not above 100 nM.

As for `COC1(C(=O)N2Cc3ccc(C(=O)NO)cc3OC[C@@H]2C)CCOCC1` [(S)-N-hydroxy-4-(4-methoxytetrahydro-2H-pyran-4-carbonyl)-3-methyl-2,3,4,5-tetrahydrobenzo[f][1,4]oxazepine-8-carboxamide], the IC50 is not above 100 nM.
